According to the supplement of paper PMC10307832:

How the values were obtained:
Experiment in all cases: relative viability (nuclei count vs DMSO), 5 days (fraction); higher = more cells survive
[1] = system: NCI-H1650
How it was run: (§1)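 One day after seeding in 1536-well plates, lung cancer cell lines were dosed by pin tool. Dosing was either single-drug or a fixed anchor-drug dose plus five library-drug doses (not always all listed) in √10 steps. After 5 days, nuclei were stained in one fix-and-stain step and counted on 4× images, and relative viability is the nuclei count of treated wells over that of vehicle wells, given as the median of duplicate plates.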

[2] = system: CAL-12T
How it was run: as §1

[3] = system: NCI-H1915
How it was run: as §1

[4] = system: H3255
How it was run: as §1

[5] = system: LC-2-ad
How it was run: as §1

[6] = system: NCI-H441
How it was run: as §1

[7] = system: A-427
How it was run: as §1

[8] = system: NCI-H1944
How it was run: as §1

[9] = system: PC-3 [JPC-3]
How it was run: as §1

[10] = system: NCI-H2087
How it was run: as §1

[11] = system: NCI-H460
How it was run: as §1

[12] = system: NCI-H596
How it was run: as §1

[13] = system: 201T
How it was run: as §1

[14] = system: NCI-H650
How it was run: as §1

[15] = system: NCI-H727
How it was run: as §1

[16] = system: BEN
How it was run: as §1

[17] = system: LCLC-97TM1
How it was run: as §1

[18] = system: NCI-H661
How it was run: as §1

[19] = system: NCI-H520
How it was run: as §1

[20] = system: ABC-1
How it was run: as §1

[21] = system: NCI-H1651
How it was run: as §1

[22] = system: NCI-H2023
How it was run: as §1

[23] = system: NCI-H1792
How it was run: as §1

Compound: NC(=O)Nc1cc(-c2cccc(F)c2)sc1C(=O)N[C@H]1CCCNC1 [AZD7762] + CS(=O)(=O)N1CCN(Cc2cc3nc(-c4cccc5[nH]ncc45)nc(N4CCOCC4)c3s2)CC1 [Pictilisib] (partner 1 µM)
- relative viability ([1]; first compound 0.01 µM): 0.62
- relative viability ([1]; first compound 0.03162 µM): 0.657
- relative viability ([1]; first compound 0.1 µM): 0.515
- relative viability ([1]; first compound 0.3162 µM): 0.391
- relative viability ([1]; first compound 1 µM): 0.155
- relative viability ([2]; first compound 0.01 µM): 0.413
- relative viability ([2]; first compound 0.03162 µM): 0.521
- relative viability ([2]; first compound 0.1 µM): 0.385
- relative viability ([2]; first compound 0.3162 µM): 0.405
- relative viability ([2]; first compound 1 µM): 0.238
- relative viability ([3]; first compound 0.01 µM): 0.931
- relative viability ([3]; first compound 0.03162 µM): 0.96
- relative viability ([3]; first compound 0.1 µM): 1.02
- relative viability ([3]; first compound 0.3162 µM): 0.918
- relative viability ([3]; first compound 1 µM): 0.924
- relative viability ([4]; first compound 0.01 µM): 0.527
- relative viability ([4]; first compound 0.03162 µM): 0.448
- relative viability ([4]; first compound 0.1 µM): 0.519
- relative viability ([4]; first compound 0.3162 µM): 0.514
- relative viability ([4]; first compound 1 µM): 0.418
- relative viability ([5]; first compound 0.01 µM): 0.438
- relative viability ([5]; first compound 0.03162 µM): 0.39
- relative viability ([5]; first compound 0.1 µM): 0.321
- relative viability ([5]; first compound 0.3162 µM): 0.308
- relative viability ([5]; first compound 1 µM): 0.196
- relative viability ([6]; first compound 0.01 µM): 0.494
- relative viability ([6]; first compound 0.03162 µM): 0.594
- relative viability ([6]; first compound 0.1 µM): 0.7
- relative viability ([6]; first compound 0.3162 µM): 0.556
- relative viability ([6]; first compound 1 µM): 0.555
- relative viability ([7]; first compound 0.01 µM): 0.654
- relative viability ([7]; first compound 0.03162 µM): 0.879
- relative viability ([7]; first compound 0.1 µM): 0.762
- relative viability ([7]; first compound 0.3162 µM): 0.734
- relative viability ([7]; first compound 1 µM): 0.49
- relative viability ([8]; first compound 0.01 µM): 0.333
- relative viability ([8]; first compound 0.03162 µM): 0.395
- relative viability ([8]; first compound 0.1 µM): 0.4
- relative viability ([8]; first compound 0.3162 µM): 0.363
- relative viability ([8]; first compound 1 µM): 0.389
- relative viability ([9]; first compound 0.01 µM): 0.774
- relative viability ([9]; first compound 0.03162 µM): 0.793
- relative viability ([9]; first compound 0.1 µM): 0.779
- relative viability ([9]; first compound 0.3162 µM): 0.705
- relative viability ([9]; first compound 1 µM): 0.448
- relative viability ([10]; first compound 0.01 µM): 0.982
- relative viability ([10]; first compound 0.03162 µM): 0.902
- relative viability ([10]; first compound 0.1 µM): 1.23
- relative viability ([10]; first compound 0.3162 µM): 1.31
- relative viability ([10]; first compound 1 µM): 1.09
- relative viability ([11]; first compound 0.01 µM): 0.356
- relative viability ([11]; first compound 0.03162 µM): 0.382
- relative viability ([11]; first compound 0.1 µM): 0.417
- relative viability ([11]; first compound 0.3162 µM): 0.342
- relative viability ([11]; first compound 1 µM): 0.175
- relative viability ([12]; first compound 0.01 µM): 0.405
- relative viability ([12]; first compound 0.03162 µM): 0.411
- relative viability ([12]; first compound 0.1 µM): 0.487
- relative viability ([12]; first compound 0.3162 µM): 0.454
- relative viability ([12]; first compound 1 µM): 0.389
- relative viability ([13]; first compound 0.01 µM): 0.707
- relative viability ([13]; first compound 0.03162 µM): 0.689
- relative viability ([13]; first compound 0.1 µM): 0.668
- relative viability ([13]; first compound 0.3162 µM): 0.65
- relative viability ([13]; first compound 1 µM): 0.738
- relative viability ([14]; first compound 0.01 µM): 0.906
- relative viability ([14]; first compound 0.03162 µM): 0.854
- relative viability ([14]; first compound 0.1 µM): 0.855
- relative viability ([14]; first compound 0.3162 µM): 1
- relative viability ([14]; first compound 1 µM): 0.839
- relative viability ([15]; first compound 0.01 µM): 0.429
- relative viability ([15]; first compound 0.03162 µM): 0.346
- relative viability ([15]; first compound 0.1 µM): 0.321
- relative viability ([15]; first compound 0.3162 µM): 0.243
- relative viability ([15]; first compound 1 µM): 0.269
- relative viability ([16]; first compound 0.01 µM): 0.713
- relative viability ([16]; first compound 0.03162 µM): 0.689
- relative viability ([16]; first compound 0.1 µM): 0.537
- relative viability ([16]; first compound 0.3162 µM): 0.539
- relative viability ([16]; first compound 1 µM): 0.41
- relative viability ([17]; first compound 0.01 µM): 0.201
- relative viability ([17]; first compound 0.03162 µM): 0.201
- relative viability ([17]; first compound 0.1 µM): 0.277
- relative viability ([17]; first compound 0.3162 µM): 0.216
- relative viability ([17]; first compound 1 µM): 0.152
- relative viability ([18]; first compound 0.01 µM): 0.41
- relative viability ([18]; first compound 0.03162 µM): 0.406
- relative viability ([18]; first compound 0.1 µM): 0.356
- relative viability ([18]; first compound 0.3162 µM): 0.316
- relative viability ([18]; first compound 1 µM): 0.312
- relative viability ([19]; first compound 0.01 µM): 0.328
- relative viability ([19]; first compound 0.03162 µM): 0.28
- relative viability ([19]; first compound 0.1 µM): 0.253
- relative viability ([19]; first compound 0.3162 µM): 0.216
- relative viability ([19]; first compound 1 µM): 0.219
- relative viability ([20]; first compound 0.01 µM): 0.72
- relative viability ([20]; first compound 0.03162 µM): 0.84
- relative viability ([20]; first compound 0.1 µM): 0.611
- relative viability ([20]; first compound 0.3162 µM): 0.462
- relative viability ([20]; first compound 1 µM): 0.245
- relative viability ([21]; first compound 0.01 µM): 0.755
- relative viability ([21]; first compound 0.03162 µM): 0.566
- relative viability ([21]; first compound 0.1 µM): 0.556
- relative viability ([21]; first compound 0.3162 µM): 0.457
- relative viability ([21]; first compound 1 µM): 0.226
- relative viability ([22]; first compound 0.01 µM): 0.228
- relative viability ([22]; first compound 0.03162 µM): 0.227
- relative viability ([22]; first compound 0.1 µM): 0.176
- relative viability ([22]; first compound 0.3162 µM): 0.11
- relative viability ([22]; first compound 1 µM): 0.091
- relative viability ([23]; first compound 0.01 µM): 0.323
- relative viability ([23]; first compound 0.03162 µM): 0.328
- relative viability ([23]; first compound 0.1 µM): 0.311
- relative viability ([23]; first compound 0.3162 µM): 0.377
- relative viability ([23]; first compound 1 µM): 0.431
